Assay results taken from patent US5368707A, “Convenient determination of trace lead in whole blood and other fluids” (priority 1993, dated 1994).

Columns and labels:
[1] = target: T1, isocitrate dehydrogenase (Sus scrofa, UniProt P33198); test: Effect of pH on inhibition of isocitrate dehydrogenase by lead ion (Example 7); format: biochemical, pig; conditions: for Current / Inhibition: 1.0 U/mL enzyme, 50 mM Tris
T1 construct: purchased Sigma, St. Louis, Mo; ICD Type VI
T1 sequence (P33198 9-421): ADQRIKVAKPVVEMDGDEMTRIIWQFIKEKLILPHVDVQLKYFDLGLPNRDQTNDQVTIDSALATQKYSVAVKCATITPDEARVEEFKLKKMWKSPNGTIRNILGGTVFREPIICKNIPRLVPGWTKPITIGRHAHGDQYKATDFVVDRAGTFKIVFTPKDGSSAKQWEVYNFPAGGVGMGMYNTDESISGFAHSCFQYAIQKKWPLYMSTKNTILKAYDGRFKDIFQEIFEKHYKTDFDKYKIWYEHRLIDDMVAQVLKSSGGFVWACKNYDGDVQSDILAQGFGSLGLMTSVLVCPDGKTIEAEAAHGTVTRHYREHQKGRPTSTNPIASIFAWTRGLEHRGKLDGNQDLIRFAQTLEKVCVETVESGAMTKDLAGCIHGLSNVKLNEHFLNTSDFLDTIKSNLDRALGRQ
Experimental: (§1) The inventors have shown that less than 1 μg/dL of lead in solution may be measured employing the enzyme isocitrate dehydrogenase. The measurements are sensitive to several factors, including pH, enzyme concentration, co-factor concentration and temperature. The following example illustrates the effect of pH on enzyme inhibition.
Inhibition of the enzyme isocitrate dehydrogenase was calculated based on the amperometric signal (I) which is the mediator oxidation current measured with a glassy carbon electrode at an applied potential of +100 mV. Inhibition was determined as (Iuninhibited -Iinhibited)/Iuninhibited. 50 mM Tris buffer at various pH values as shown in Table 2 was used with 1.0 U/mL enzyme in the solution.

[2] = target: T1, isocitrate dehydrogenase; test: ICDH inhibition by lead in the presence of CoSO4 (Example 8); format: biochemical, pig; conditions: 1 mM CoSO4
Experimental: (§2) A major problem in the measurement of lead in blood is the interference by various blood proteins and, as in the majority of clinical samples, the presence of excess amounts of EDTA. The inventors have discovered that lead chelated with EDTA is exchangeable with cobalt(II). As shown in this example, lead Pb(II) is displaced from EDTA by cobalt(II) and detected by its inhibition of isocitrate dehydrogenase (ICDH).
Micromolar concentrations of lead were determined through ICDH inhibition in the presence of 1 mM CoSO4.

[3] = target: T1, isocitrate dehydrogenase; test: ICDH inhibition by lead in the presence of EDTA with or without CoSO4 (Example 8); format: biochemical, pig; conditions: 2 mM EDTA; for Inhibition: 2.5 mM CoSO4
Source text: as §2
Micromolor concentrations of lead were detected by ICDH inhibition in the presence of 2 mM EDTA and 2.5 mM CoSO4.

[4] = target: T1, isocitrate dehydrogenase; test: Effect of temperature on lead inhibition of isocitrate dehydrogenase (Example 9); format: biochemical, pig; conditions: for Inhibition rate: 4 μM lead, 10 nM enzyme, 15 min; for inhibition rates: lead concentration not printed at this place
Experimental: The activity of isocitrate dehydrogenase and its response is affected by several factors.
A solution of isocitrate dehydrogenase (10 nM) was incubated for 15 min at various temperatures between 18° C. and 37° C. and rate of lead inhibition measured. Inhibition rates increased approximately linearly from about 25% to 85% at a lead concentration of 4 μM (FIG. 5).

[5] = target: T1, isocitrate dehydrogenase; test: Sensitivity of isocitrate dehydrogenase to lead ion (detection level); format: biochemical, pig
Experimental: Pig heart NADP-linked isocitric dehydrogenase (ICD, EC 1.1.1.42), an oxidoreductase, is sensitive to trace levels of lead ion as low as 1 μg/dl. […] In fact, at low concentrations of activator, e.g., <200 ppb Mn^++, the activity of ICD is proportional to Mn^++ and may be used to determine activator concentration (Guilbault, 1970). Inactivation by inhibitors is useful for determining inhibitor concentration. Specificity of enzymes for activators, or inhibitors, is not as great as for the natural substrate of the enzyme, but in some cases inhibitor concentration may be selectively determined. Silver and mercury have been determined in the presence of each other using isocitrate dehydrogenase (Mealor and Townshend, 1968). However, until now, there has been no satisfactory rapid amperometric method to determine lead ion based on ICD inhibition, much less a simple method to determine low lead ion concentrations in whole blood.
The inventors have developed a highly sensitive method for the determination of lead ion in solution. Isocitrate dehydrogenase, under specific conditions, may be employed in an assay to quantitatively determine lead ion in the range 0-30 μg per deciliter of solution. Assay sensitivity can be adjusted to a desired concentration range for lead by altering one or more of several parameters such as the concentration of isocitric dehydrogenase. Lower enzyme concentrations increase sensitivity to lead ion.
as §1

[6] = test system: Horseradish peroxidase; conditions: Guilbault, et al., 1968; cited from earlier work

SMILES: [Pb+2] [lead ion]
- Current ([1]; pH 7.5, 5.5 μg/dL Pb): 749 nA
- Inhibition ([1]; pH 7.5, 5.5 μg/dL Pb): 0%
- Current ([1]; pH 7.5, 11.1 μg/dL Pb): 754 nA
- Inhibition ([1]; pH 7.5, 11.1 μg/dL Pb): 0%
- Current ([1]; pH 7.5, 16.6 μg/dL Pb): 760 nA
- Inhibition ([1]; pH 7.5, 16.6 μg/dL Pb): -1%
- Current ([1]; pH 7.5, 22.1 μg/dL Pb): 750 nA
- Inhibition ([1]; pH 7.5, 22.1 μg/dL Pb): 0%
- Current ([1]; pH 7.5, 27.6 μg/dL Pb): 761 nA
- Inhibition ([1]; pH 7.5, 27.6 μg/dL Pb): -1%
- Inhibition (in words) ([1]; pH 7.5, 27.6 μg/dL lead): no significant inhibition
- Inhibition (in words) ([1]; pH 7.5, up to about 28 mg per deciliter lead (so in the source)): very little if any inhibition
- Current ([1]; pH 8.0, 5.5 μg/dL Pb): 673 nA
- Inhibition ([1]; pH 8.0, 5.5 μg/dL Pb): 6%
- Current ([1]; pH 8.0, 11.1 μg/dL Pb): 613 nA
- Inhibition ([1]; pH 8.0, 11.1 μg/dL Pb): 14%
- Current ([1]; pH 8.0, 16.6 μg/dL Pb): 532 nA
- Inhibition ([1]; pH 8.0, 16.6 μg/dL Pb): 25%
- Current ([1]; pH 8.0, 22.1 μg/dL Pb): 439 nA
- Inhibition ([1]; pH 8.0, 22.1 μg/dL Pb): 38%
- Current ([1]; pH 8.0, 27.6 μg/dL Pb): 303 nA
- Inhibition ([1]; pH 8.0, 27.6 μg/dL Pb): 58%
- enzyme inhibition ([1]; pH 8, up to about 28 mg per deciliter lead (so in the source)): about 60%
- Current ([1]; pH 8.5, 5.5 μg/dL Pb): 636 nA
- Inhibition ([1]; pH 8.5, 5.5 μg/dL Pb): 18%
- Current ([1]; pH 8.5, 11.1 μg/dL Pb): 522 nA
- Inhibition ([1]; pH 8.5, 11.1 μg/dL Pb): 33%
- Current ([1]; pH 8.5, 16.6 μg/dL Pb): 406 nA
- Inhibition ([1]; pH 8.5, 16.6 μg/dL Pb): less than 50%
- Inhibition ([1]; pH 8.5, 16.6 μg/dL Pb, listed as Lead ion): 48%
- Current ([1]; pH 8.5, 22.1 μg/dL Pb): 241 nA
- Inhibition ([1]; pH 8.5, 22.1 μg/dL Pb): 69%
- Current ([1]; pH 8.5, 27.6 μg/dL Pb): 99 nA
- Inhibition ([1]; pH 8.5, 27.6 μg/dL Pb, listed as Lead ion): 87%
- Inhibition ([1]; pH 8.5, 27.6 μg/dL Pb, listed as lead): approximately 87%
- enzyme inhibition ([1]; pH 8.5, up to about 28 mg per deciliter lead (so in the source)): about 90%
- Current ([1]; pH 9.0, 5.5 μg/dL Pb): 4 nA
- Inhibition ([1]; pH 9.0, 5.5 μg/dL Pb): 99%
- Current ([1]; pH 9.0, 11.1 μg/dL Pb): 21 nA
- Inhibition ([1]; pH 9.0, 11.1 μg/dL Pb): 98%
- Inhibition (in words) ([1]; pH 9.0, between 0 and 5.5 mg per deciliter lead (so in the source)): complete inhibition
- Inhibition (in words) ([1]; pH 9.0, up to 5.5 μg/dL lead): completely inhibited
- Inhibition ([2]; 2.4 μM lead): 24%
- Inhibition ([2]; 4.8 μM lead): 46%
- Inhibition ([2]; 12 μM lead): 71%
- Inhibition ([3]; 12 μM lead): 23%
- Inhibition ([3]; 36 μM lead): 32%
- Inhibition ([3]; 121 μM lead): 47%
- Inhibition (in words) ([3]; absence of CoSO4): no inhibition was observed
- Inhibition rate ([4]; 18° C.): about 25%
- inhibition rates ([4]; 18° C.): 25%
- Inhibition rate ([4]; 37° C.): ~85%
- inhibition rates ([4]; 37° C.): about 85%
- reversibility of binding to ICDH [5]: binds irreversibly to the enzyme
- detectable lead ion level ([5]; ICDH inhibition): ~1 µg/dL
- quantitatively determinable lead range ([5]; isocitrate dehydrogenase assay, in solution): 0-30 μg per deciliter
- linear range of peroxidase inhibition [6]: 10 to 185 µg/mL
